Measured values published in patent publication US8952024B2, “Herbicidal pyrimidone derivatives” (E I du Pont de Nemours and Company, priority 2009, dated 2015).

Key:
Type in all cases: in vivo
[1] = tested on: Surinam grass (Brachiaria decumbens); assay: Test B pre-/postemergence plant response
Method in brief: (§1)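 Response scores were assigned visually after 13 to 15 days in a greenhouse, comparing treated pots with controls on a 0–100 scale where 100 denotes complete control. Preemergence treatments went onto freshly seeded loam/sand soil; postemergence treatments onto plants 2 to 18 cm tall.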

soybean (Glycine max) = assay: Test B pre-/postemergence plant response
Method in brief: as §1

[2] = tested on: yellow nutsedge (Cyperus esculentus); assay: Test B pre-/postemergence plant response
Method in brief: as §1

[3] = tested on: johnsongrass (Sorghum halepense); assay: Test B pre-/postemergence plant response
Method in brief: as §1

[4] = tested on: ragweed (common ragweed, Ambrosia elatior); assay: Test B pre-/postemergence plant response
Method in brief: as §1

[5] = tested on: lambsquarters (Chenopodium album); assay: Test B pre-/postemergence plant response
Method in brief: as §1

[6] = tested on: bermudagrass (Cynodon dactylon); assay: Test B pre-/postemergence plant response
Method in brief: as §1

[7] = tested on: blackgrass (Alopecurus myosuroides); assay: Test B pre-/postemergence plant response
Method in brief: as §1

wild oat (Avena fatua) = assay: Test B pre-/postemergence plant response
Method in brief: as §1

[8] = tested on: woolly cupgrass (Eriochloa villosa); assay: Test B pre-/postemergence plant response
Method in brief: as §1

[9] = tested on: Italian ryegrass (Lolium multiflorum); assay: Test B pre-/postemergence plant response
Method in brief: as §1

corn (Zea mays) = assay: Test B pre-/postemergence plant response
Method in brief: as §1

[10] = tested on: large crabgrass (Digitaria sanguinalis); assay: Test B pre-/postemergence plant response
Method in brief: as §1

[11] = tested on: velvetleaf (Abutilon theophrasti); assay: Test B pre-/postemergence plant response
Method in brief: as §1

[12] = tested on: windgrass (Apera spica-venti); assay: Test B postemergence plant response
Method in brief: (§2)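 Visual ratings from 0 (no effect) to 100 (complete control), made against controls 13–15 days after treatment, kept in a greenhouse. Compounds were applied postemergence to potted plants at the 1- to 4-leaf stage (2–18 cm).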

[13] = tested on: winter barley (Hordeum vulgare); assay: Test B postemergence plant response
Method in brief: as §2

[14] = tested on: chickweed (Stellaria media); assay: Test B postemergence plant response
Method in brief: as §2

[15] = tested on: canarygrass (Phalaris minor); assay: Test B postemergence plant response
Method in brief: as §2

[16] = 31 g ai/ha, postemergence, scale 0 to 100, 0 is no effect, 100 is complete control
[17] = Postemergence, 62 g ai/ha, scale 0 (no effect) to 100 (complete control), 13 to 15 days
[18] = Postemergence, 125 g ai/ha, visual rating after 13 to 15 days, scale 0 (no effect) to 100 (complete control)
[19] = Postemergence, 250 g ai/ha, scale 0 to 100 (0 no effect, 100 complete control)
[20] = Preemergence, 31 g ai/ha, scale 0 to 100 (0 no effect, 100 complete control)
[21] = Preemergence, 62 g ai/ha, scale 0 to 100, 0 no effect, 100 complete control
[22] = Preemergence, 125 g ai/ha, scale 0 to 100, 0 no effect, 100 complete control
[23] = 250 g ai/ha, Preemergence, 0 to 100 scale

CCCCc1ncc(C(=O)C2=C(O)CCCC2=O)c(=O)n1-c1ccccc1C [Compound 62]
Plant response rating, Surinam Grass [1, 16]: 20 | Plant response rating, Surinam Grass [1, 17]: 45 | Plant response rating, Surinam Grass [1, 18]: 65 | Plant response rating, Surinam Grass [1, 19]: 70 | Plant response rating, Surinam Grass [1, 20]: 5 | Plant response rating, Surinam Grass [1, 21]: 20 | Plant response rating, Surinam Grass [1, 22]: 25 | Plant response rating, Soybean (soybean (Glycine max); [16]): 75 | Plant response rating, Soybean (soybean (Glycine max); [17]): 80 | Plant response rating, Soybean (soybean (Glycine max); [18]): 90 | Plant response rating, Soybean (soybean (Glycine max); [19]): 95 | Plant response rating, Soybean (soybean (Glycine max); [20]): 0 | Plant response rating, Soybean (soybean (Glycine max); [21]): 80 | Plant response rating, Soybean (soybean (Glycine max); [22]): 80 | Plant response rating, Nutsedge, Yellow [2, 16]: 15 | Plant response rating, Nutsedge, Yellow [2, 17]: 25 | Plant response rating, Nutsedge, Yellow [2, 18]: 35 | Plant response rating, Nutsedge, Yellow [2, 19]: 55 | Plant response rating, Nutsedge, Yellow [2, 20]: 15 | Plant response rating, Nutsedge, Yellow [2, 21]: 25 | Plant response rating, Nutsedge, Yellow [2, 22]: 45 | Plant response rating, Johnsongrass [3, 16]: 0 | Plant response rating, Johnsongrass [3, 17]: 0 | Plant response rating, Johnsongrass [3, 18]: 0 | Plant response rating, Johnsongrass [3, 19]: 10 | Plant response rating, Johnsongrass [3, 20]: 0 | Plant response rating, Johnsongrass [3, 21]: 0 | Plant response rating, Johnsongrass [3, 22]: 0 | Plant response rating, Ragweed [4, 16]: 70 | Plant response rating, Ragweed [4, 17]: 75 | Plant response rating, Ragweed [4, 18]: 75 | Plant response rating, Ragweed [4, 19]: 80 | Plant response rating, Ragweed [4, 20]: 0 | Plant response rating, Ragweed [4, 21]: 20 | Plant response rating, Ragweed [4, 22]: 45 | Plant response rating, Lambsquarters [5, 16]: 85 | Plant response rating, Lambsquarters [5, 23]: 100 | Plant response rating, Lambsquarters [5, 17]: 95 | Plant response rating, Lambsquarters [5, 18]: 98 | Plant response rating, Lambsquarters [5, 19]: 100 | Plant response rating, Lambsquarters [5, 20]: 98 | Plant response rating, Lambsquarters [5, 21]: 98 | Plant response rating, Lambsquarters [5, 22]: 100 | Plant response rating, Bermudagrass [6, 23]: 100 | Plant response rating, Bermudagrass [6, 17]: 80 | Plant response rating, Bermudagrass [6, 18]: 85 | Plant response rating, Bermudagrass [6, 19]: 90 | Plant response rating, Bermudagrass [6, 20]: 20 | Plant response rating, Bermudagrass [6, 21]: 75 | Plant response rating, Bermudagrass [6, 22]: 95 | Plant response rating, Blackgrass [7, 16]: 15 | Plant response rating, Blackgrass [7, 23]: 0 | Plant response rating, Blackgrass [7, 17]: 30 | Plant response rating, Blackgrass [7, 18]: 30 | Plant response rating, Blackgrass [7, 19]: 50 | Plant response rating, Blackgrass [7, 20]: 0 | Plant response rating, Blackgrass [7, 21]: 0 | Plant response rating, Blackgrass [7, 22]: 0 | Plant response rating, Oat, Wild (wild oat (Avena fatua); [16]): 5 | Plant response rating, Oat, Wild (wild oat (Avena fatua); [17]): 10 | Plant response rating, Oat, Wild (wild oat (Avena fatua); [18]): 25 | Plant response rating, Oat, Wild (wild oat (Avena fatua); [19]): 40 | Plant response rating, Oat, Wild (wild oat (Avena fatua); [20]): 0 | Plant response rating, Oat, Wild (wild oat (Avena fatua); [21]): 0 | Plant response rating, Oat, Wild (wild oat (Avena fatua); [22]): 0 | Plant response rating, Cupgrass, Woolly [8, 16]: 55 | Plant response rating, Cupgrass, Woolly [8, 23]: 10 | Plant response rating, Cupgrass, Woolly [8, 17]: 55 | Plant response rating, Cupgrass, Woolly [8, 18]: 60 | Plant response rating, Cupgrass, Woolly [8, 19]: 65 | Plant response rating, Cupgrass, Woolly [8, 20]: 0 | Plant response rating, Cupgrass, Woolly [8, 21]: 0 | Plant response rating, Cupgrass, Woolly [8, 22]: 5 | Plant response rating, Ryegrass, Italian [9, 16]: 0 | Plant response rating, Ryegrass, Italian [9, 17]: 5 | Plant response rating, Ryegrass, Italian [9, 18]: 50 | Plant response rating, Ryegrass, Italian [9, 19]: 50 | Plant response rating, Ryegrass, Italian [9, 20]: 0 | Plant response rating, Ryegrass, Italian [9, 21]: 0 | Plant response rating, Ryegrass, Italian [9, 22]: 0 | Plant response rating, Corn (corn (Zea mays); [16]): 70 | Plant response rating, Corn (corn (Zea mays); [17]): 70 | Plant response rating, Corn (corn (Zea mays); [18]): 75 | Plant response rating, Corn (corn (Zea mays); [19]): 80 | Plant response rating, Corn (corn (Zea mays); [20]): 0 | Plant response rating, Corn (corn (Zea mays); [22]): 0 | Plant response rating, Crabgrass, Large [10, 16]: 55 | Plant response rating, Crabgrass, Large [10, 23]: 98 | Plant response rating, Crabgrass, Large [10, 17]: 75 | Plant response rating, Crabgrass, Large [10, 18]: 80 | Plant response rating, Crabgrass, Large [10, 19]: 85 | Plant response rating, Crabgrass, Large [10, 20]: 0 | Plant response rating, Crabgrass, Large [10, 21]: 50 | Plant response rating, Crabgrass, Large [10, 22]: 80 | Plant response rating, Velvetleaf [11, 16]: 85 | Plant response rating, Velvetleaf [11, 17]: 95 | Plant response rating, Velvetleaf [11, 18]: 95 | Plant response rating, Velvetleaf [11, 19]: 100 | Plant response rating, Velvetleaf [11, 20]: 75 | Plant response rating, Velvetleaf [11, 21]: 75 | Plant response rating, Velvetleaf [11, 22]: 95 | Plant response rating, Windgrass [12, 16]: 30 | Plant response rating, Windgrass [12, 17]: 35 | Plant response rating, Windgrass [12, 18]: 35 | Plant response rating, Windgrass [12, 19]: 50 | Plant response rating, Barley [13, 16]: 0 | Plant response rating, Barley [13, 17]: 5 | Plant response rating, Barley [13, 18]: 5 | Plant response rating, Barley [13, 19]: 30 | Plant response rating, Chickweed [14, 16]: 70 | Plant response rating, Chickweed [14, 17]: 70 | Plant response rating, Chickweed [14, 18]: 75 | Plant response rating, Chickweed [14, 19]: 80 | Plant response rating, Canarygrass [15, 16]: 0 | Plant response rating, Canarygrass [15, 17]: 0 | Plant response rating, Canarygrass [15, 18]: 0 | Plant response rating, Canarygrass [15, 19]: 5
